Among the data in patent US20250382305A1 (PTC THERAPEUTICS, INC., priority 2022, published 2025) are IC50 values, retold here.

Some results are limits rather than exact numbers.

For assay [1], the system named is Total ATXN3 (tATXN3) protein. Put plainly: Endogenous Total ATXN3 (tATXN3) Protein Assay (MSD immunoassay of cell lysates). Type of assay: cell-based. The conditions noted are these: average IC50, total ATXN3 protein in cell lysate after 48 h with compound (Table 1). The gist of the method: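 By electrochemiluminescent MSD sandwich immunoassay (mouse monoclonal capture, rabbit monoclonal and SULFO-TAG anti-rabbit detection), endogenous ATXN3 was quantified in lysates of cells treated 48 h at 37° C at 10,000 cells/well. Treatment used a 7-point 3.16-fold duplicate dilution series, with average IC50 grouped into star categories.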

In assay [2] the test system is ATXN3 pre-mRNA. Kind of assay: RT-qPCR Assay to Quantify Exon 4 Skipping in ATXN3 pre-mRNA in Cells. In kind it is cell-based. The conditions noted are these: percent exon 4 skipping in ATXN3 pre-mRNA, RT-qPCR of cell lysates; average IC50. The gist of the method: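 IC50 derives from a dose-response fit of percent exon 4 skipping, quantified by RT-qPCR on crude lysates. Compounds tested as 7-point 3.16-fold dilutions in duplicate; cells (10,000/well) were exposed for 24 h at 37 °C before lysis.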
(Quantitative PCR measures a nucleic acid by following its amplification.)

As for “6-((1R,6R)-6-aminocyclohex-3-en-1-yl-2,2,3,4,5,5-d6)-7-bromo-2-chloro-N-(thiophen-2-ylmethyl)thieno[3,2-d]pyrimidin-4-amine [Compound 372]”, the half-maximal inhibitory concentration (IC50) in assay [1] and in assay [2] was 30 to 300 nM each time.
For `N[C@H]1CC=CC[C@@H]1c1sc2c(NCc3ccncc3F)cc(Cl)nc2c1Cl` [Compound 239, 2-((1S,6S)-6-aminocyclohex-3-en-1-yl)-3,5-dichloro-N-((3-fluoropyridin-4-yl)methyl)thieno[3,2-b]pyridin-7-amine], the IC50 in assay [1] and in assay [2] was ≤ 30 nM each time.
As for `N[C@H]1CC=CC[C@@H]1c1sc2c(NCc3cccs3)cc(Cl)nc2c1I` [Compound 176, 2-((1S,6S)-6-aminocyclohex-3-en-1-yl)-5-chloro-3-iodo-N-(thiophen-2-ylmethyl)thieno[3,2-b]pyridin-7-amine], the half-maximal inhibitory concentration (IC50) in assay [1] and in assay [2] was ≤ 30 nM in each case.
As to `N[C@@H]1CC=CC[C@H]1c1sc2c(NCc3cccs3)nc(Cl)nc2c1Cl.N[C@H]1CC=CC[C@@H]1c1sc2c(NCc3cccs3)nc(Cl)nc2c1Cl` (mixture of isomers) [Compound 397, 6-((1R,6R)-6-aminocyclohex-3-en-1-yl)-2,7-dichloro-N-(thiophen-2-ylmethyl)thieno[3,2-d]pyrimidin-4-amine and 6-((1S,6S)-6-aminocyclohex-3-en-1-yl)-2,7-dichloro-N-(thiophen-2-ylmethyl)thieno[3,2-d]pyrimidin-4-amine], the IC50 in assay [1] and in assay [2] was 300 to 1000 nM each time.
As to “2-((1R,2R,6S)-2-amino-6-fluorocyclohexyl)-3-bromo-5-chloro-N-(thiophen-2-ylmethyl)thieno[3,2-b]pyridin-7-amine and 2-((1S,2S,6R)-2-amino-6-fluorocyclohexyl)-3-bromo-5-chloro-N-(thiophen-2-ylmethyl)thieno[3,2-b]pyridin-7-amine [Compound 335]”, the IC50 in assay [1] and in assay [2] was 30 to 300 nM each time.
Take `Cc1c([C@H]2CC=CC[C@@H]2N)sc2c(NCc3cccs3)cc(C#N)nc12` [Compound 246, 2-((1S,6S)-6-aminocyclohex-3-en-1-yl)-3-methyl-7-((thiophen-2-ylmethyl)amino)thieno[3,2-b]pyridine-5-carbonitrile]: the results for the IC50 in assay [1] and in assay [2] were ≤ 30 nM and 30 to 300 nM, respectively.
Regarding `N[C@H]1CC=CC[C@@H]1c1c(I)c2nc(Cl)nc(NCc3ccco3)c2n1C(F)F` [Compound 276, 6-((1S,6S)-6-aminocyclohex-3-en-1-yl)-2-chloro-5-(difluoromethyl)-N-(furan-2-ylmethyl)-7-iodo-5H-pyrrolo[3,2-d]pyrimidin-4-amine], the half-maximal inhibitory concentration (IC50) in assay [1] and in assay [2] was 30 to 300 nM in each case.
As to “5-(5-chloro-2-((1R,6R)-6-(dimethylamino)cyclohex-3-en-1-yl)-7-((thiophen-2-ylmethyl)amino)thieno[3,2-b]pyridin-3-yl)pent-4-yn-1-ol and 5-(5-chloro-2-((1S,6S)-6-(dimethylamino)cyclohex-3-en-1-yl)-7-((thiophen-2-ylmethyl)amino)thieno[3,2-b]pyridin-3-yl)pent-4-yn-1-ol [Compound 454]”, the IC50 in assay [1] and in assay [2] was 300 to 1000 nM throughout.
For the molecule `N[C@H]1COCC[C@@H]1c1sc2c(NCc3ccncc3)cc(Cl)nc2c1Br` [Compound 364, 2-((3R,4S)-3-aminotetrahydro-2H-pyran-4-yl)-3-bromo-5-chloro-N-(pyridin-4-ylmethyl)thieno[3,2-b]pyridin-7-amine], the IC50 in assay [1] and in assay [2] was 30 to 300 nM each time.
As to `N[C@H]1CCCO[C@@H]1c1sc2c(NCc3ccccc3)cc(Cl)nc2c1Br` [Compound 108, 2-((2S,3S)-3-aminotetrahydro-2H-pyran-2-yl)-N-benzyl-3-bromo-5-chlorothieno[3,2-b]pyridin-7-amine], the half-inhibitory concentration (IC50) in assay [1] and in assay [2] was ≤ 30 nM in each case.
Turning to “6-((3R,4S)-3-aminotetrahydro-2H-pyran-4-yl)-2-chloro-N-(furan-2-ylmethyl)-7-((trimethylsilyl)ethynyl)thieno[3,2-d]pyrimidin-4-amine and 6-((3S,4R)-3-aminotetrahydro-2H-pyran-4-yl)-2-chloro-N-(furan-2-ylmethyl)-7-((trimethylsilyl)ethynyl)thieno[3,2-d]pyrimidin-4-amine [Compound 317]”, the half-maximal inhibitory concentration (IC50) in assay [1] and in assay [2] was 30 to 300 nM throughout.
Consider “(1R,2R,3S)-2-amino-3-(3-bromo-5-chloro-7-((thiophen-2-ylmethyl)amino)thieno[3,2-b]pyridin-2-yl)cyclohexan-1-ol and (1S,2S,3R)-2-amino-3-(3-bromo-5-chloro-7-((thiophen-2-ylmethyl)amino)thieno[3,2-b]pyridin-2-yl)cyclohexan-1-ol [Compound 228]”, for which the IC50 in assay [1] and in assay [2] was ≤ 30 nM in each case.
Regarding `N[C@H]1CC=CC[C@@H]1c1sc2c(NCc3cccs3)cc(Cl)nc2c1Br` [Compound 186, 2-((1S,6S)-6-aminocyclohex-3-en-1-yl)-3-bromo-5-chloro-N-(thiophen-2-ylmethyl)thieno[3,2-b]pyridin-7-amine], the half-inhibitory concentration (IC50) in assay [1] and in assay [2] was ≤ 30 nM each time.
“2-((1R,5S,6S)-6-amino-5-methoxycyclohex-3-en-1-yl)-3-bromo-5-chloro-N-(thiophen-2-ylmethyl)thieno[3,2-b]pyridin-7-amine and 2-((1S,5R,6R)-6-amino-5-methoxycyclohex-3-en-1-yl)-3-bromo-5-chloro-N-(thiophen-2-ylmethyl)thieno[3,2-b]pyridin-7-amine [Compound 371]”: the 50% inhibitory concentration (IC50) in assay [1] and in assay [2] was 30 to 300 nM in each case.
For the molecule `N[C@H]1COCC[C@@H]1c1sc2c(NCc3nccs3)cc(Cl)nc2c1Br` [Compound 285, 2-((3R,4S)-3-aminotetrahydro-2H-pyran-4-yl)-3-bromo-5-chloro-N-(thiazol-2-ylmethyl)thieno[3,2-b]pyridin-7-amine], the IC50 in assay [1] and in assay [2] was 30 to 300 nM in each case.
Turning to `Cc1c([C@@H]2CCCC[C@@H]2N)sc2c(NCc3cccs3)cc(Cl)nc12` [Compound 50, 2-((1R,2S)-2-aminocyclohexyl)-5-chloro-3-methyl-N-(thiophen-2-ylmethyl)thieno[3,2-b]pyridin-7-amine], the values for the IC50 in assay [1] and in assay [2] were 300 to 1000 nM and 30 to 300 nM, respectively.
`N[C@@H]1CCCCC1c1sc2c(NCc3cccs3)cc(Cl)nc2c1C(F)F.N[C@H]1CCCCC1c1sc2c(NCc3cccs3)cc(Cl)nc2c1C(F)F` (mixture of isomers) [Compound 279, 2-((2R)-2-aminocyclohexyl)-5-chloro-3-(difluoromethyl)-N-(thiophen-2-ylmethyl)thieno[3,2-b]pyridin-7-amine and 2-((2S)-2-aminocyclohexyl)-5-chloro-3-(difluoromethyl)-N-(thiophen-2-ylmethyl)thieno[3,2-b]pyridin-7-amine]: the IC50 in assay [1] and in assay [2] was 30 to 300 nM in each case.
Consider `N[C@@H]1CC=CC[C@H]1c1c(Cl)c2nc(Cl)cc(NCc3ccccc3)c2n1C(F)F` [Compound 417, 2-((1R,6R)-6-aminocyclohex-3-en-1-yl)-N-benzyl-3,5-dichloro-1-(difluoromethyl)-1H-pyrrolo[3,2-b]pyridin-7-amine], for which the IC50 in assay [1] and in assay [2] was ≤ 30 nM each time.
For the molecule `N[C@H]1CC=CC[C@@H]1c1sc2c(NCc3ccccc3)cc(Cl)nc2c1Br` [Compound 194, 2-((1S,6S)-6-aminocyclohex-3-en-1-yl)-N-benzyl-3-bromo-5-chlorothieno[3,2-b]pyridin-7-amine], the IC50 in assay [1] and in assay [2] was ≤ 30 nM throughout.
In the case of “3-bromo-5-chloro-2-[(2R,3S)-3-aminotetrahydropyran-2-yl]-N-(2-thienylmethyl)thieno[3,2-b]pyridin-7-amine and 3-bromo-5-chloro-2-[(2S,3R)-3-aminotetrahydropyran-2-yl]-N-(2-thienylmethyl)thieno[3,2-b]pyridin-7-amine [Compound 20]”, the IC50 in assay [1] and in assay [2] was 30 to 300 nM throughout.
`N[C@H]1CC=CC[C@@H]1c1sc2c(NCc3cccs3)cc(Cl)nc2c1C#Cc1ccncc1Cl` [Compound 447, 2-((1S,6S)-6-aminocyclohex-3-en-1-yl)-5-chloro-3-((3-chloropyridin-4-yl)ethynyl)-N-(thiophen-2-ylmethyl)thieno[3,2-b]pyridin-7-amine]: the IC50 in assay [1] and in assay [2] was 300 to 1000 nM in each case.
Turning to `CC#CCNc1cc(Cl)nc2c(Br)c([C@H]3CC(C)=C(C)C[C@@H]3N)sc12` [Compound 249, 2-((1S,6S)-6-amino-3,4-dimethylcyclohex-3-en-1-yl)-3-bromo-N-(but-2-yn-1-yl)-5-chlorothieno[3,2-b]pyridin-7-amine], the results for the IC50 in assay [1] and in assay [2] were 30 to 300 nM and ≤ 30 nM, respectively.
On the same counts, the results for `Cc1c([C@H]2OCCC[C@@H]2N)sc2c(NCc3ccco3)nc(Cl)nc12` [Compound 62, 6-((2S,3S)-3-aminotetrahydro-2H-pyran-2-yl)-2-chloro-N-(furan-2-ylmethyl)-7-methylthieno[3,2-d]pyrimidin-4-amine] are 30 to 300 nM and ≤ 30 nM.
On the same counts, the results for `N[C@@H]1CCCC[C@H]1c1c(I)c2nc(Cl)nc(NCc3ccco3)c2n1C(F)F` [Compound 391, 6-((1R,2R)-2-aminocyclohexyl)-2-chloro-5-(difluoromethyl)-N-(furan-2-ylmethyl)-7-iodo-5H-pyrrolo[3,2-d]pyrimidin-4-amine] are 300 to 1000 nM and 300 to 1000 nM.

By IC50 is commonly meant the concentration that inhibits the measured activity by half.
